These results are taken from ChEMBL document CHEMBL4673211, “A new Chlorin formulation promotes efficient photodynamic action in choriocapillaris of rabbit's eyes” (Bioorg Med Chem Lett, 2018).

SMILES strings stand for the structures. Active and inactive are the calls of the source. The rule behind the calls is not given here.

Data set [1] deals with Oryctolagus cuniculus. Put plainly: Photodynamic activity in New Zealand rabbit assessed as appearance of pallor area of one qaurter-diameter disc shaped in left eye pretreated with compound at 6 mg/m2, iv followed by diode laser irradiation at 650 nm measured after 24 hrs by retinography. Format: functional, organism-based. The conditions noted are these: dose 6.0 mg/m2, time 24.0 hrs.

The test system of data set [2] is Oryctolagus cuniculus. Put plainly: Photodynamic activity in New Zealand rabbit assessed as blood flow obstruction causing hypo-fluorescent lesion in left eye pretreated with compound at 6 mg/m2, iv followed by diode laser irradiation at 650 nm measured after 24 hrs by fluorescein angiogram. Format: functional, organism-based. The conditions noted are these: dose 6.0 mg/m2, time 24.0 hrs.

Data set [3] can be described thus: Toxicity in New Zealand rabbit assessed as effect on renal profile pretreated with compound at 6 mg/m2, iv followed by diode laser irradiation at 650 nm measured after 24 hrs by fluorescein angiogram. Format: organism-based, Oryctolagus cuniculus. As to conditions: in vivo, 0.65 µM, dose 6 mg/m2, time 24 hrs.
The subject of data set [4] is Oryctolagus cuniculus. Put plainly: Photodynamic activity in New Zealand rabbit assessed as induction of choriocapillaris occlusion in left eye pretreated with compound at 6 mg/m2, iv followed by diode laser irradiation at 650 nm by indirect ophthalmoscopy. Format: functional, organism-based.
Data set [5] can be described thus: Photoactivity of the compound.
Data set [6] is described as follows: Aggregation property of the compound in toluene at 130 degreeC under inert atmosphere. Format: physicochemical.
Data set [7] has as its system Oryctolagus cuniculus. Kind of data set: Photodynamic activity in New Zealand rabbit assessed as outer blood-retinal barrier breakdown causing hyper-fluorescence in left eye pretreated with compound at 6 mg/m2, iv followed by diode laser irradiation at 650 nm measured after 24 hrs by fluorescein angiogram. Format: functional, organism-based. The conditions noted are these: dose 6.0 mg/m2, time 24.0 hrs.

Data set [8] in a line: Toxicity in New Zealand rabbit assessed as retinal damage in left eye pretreated with compound at 6 mg/m2, iv followed by diode laser irradiation at 650 nm measured after 24 hrs by fluorescein angiogram. Format: organism-based, Oryctolagus cuniculus. As to conditions: in vivo, 0.65 µM, dose 6 mg/m2, time 24 hrs.
The nature of data set [9]: Toxicity in New Zealand rabbit assessed as effect on hepatic profile pretreated with compound at 6 mg/m2, iv followed by diode laser irradiation at 650 nm measured after 24 hrs by fluorescein angiogram. The class given is organism-based, Oryctolagus cuniculus. As to conditions: in vivo, 0.65 µM, dose 6 mg/m2, time 24 hrs.
Data set [10] in a line: Induction of singlet oxygen generation assessed as singlet oxygen quantum yield using liposome formulated compound. The class given is functional.
The nature of data set [11]: Induction of singlet oxygen generation in 9:1 acetonitrile/water mixture assessed as singlet oxygen quantum yield irradiated with 532 nanometer laser light. The class given is functional.
Data set [12] has as its system Oryctolagus cuniculus. Put plainly: Photodynamic activity in New Zealand rabbit assessed as vascular occlusion causing hypo-fluorescent lesion in left eye pretreated with compound at 6 mg/m2, iv followed by diode laser irradiation at 650 nm measured after 24 hrs by fluorescein angiogram. The class given is functional, organism-based. The conditions noted are these: dose 6.0 mg/m2, time 24.0 hrs.

Turning to `C=CC1=C(C)c2cc3[nH]c(cc4nc(cc5[nH]c(cc1n2)c(C)c5CCC(=O)OC)C(CCC(=O)OC)=C4C)[C@@]1(C)C3=CCC2C(=O)N(c3ccc([N+](=O)[O-])cc3)C(=O)C21` (some centres undefined), the result (in the data set on Oryctolagus cuniculus [1]; in the data set on Oryctolagus cuniculus [2]; in the data set with Oryctolagus cuniculus [4]; in data set [5]; in the data set with Oryctolagus cuniculus [7]; in the data set on Oryctolagus cuniculus [12]) was Active. The Activity entry in [3] is “Non-Toxic”; in [6], “Not Active”; in data set [8] it was “Non-Toxic”; in data set [9], “Non-Toxic”; in data set [10], 0.5; in data set [11], 0.6.

In the case of `C=Cc1c(C)c2cc3nc(cc4[nH]c(cc5nc(cc1[nH]2)[C@@]1(C)C5=CC[C@H]2C(=O)N(c5ccc([N+](=O)[O-])cc5)C(=O)[C@H]21)c(C)c4CCC(=O)OC)C(CCC(=O)OC)=C3C`, the result (with Oryctolagus cuniculus [1]; in the data set with Oryctolagus cuniculus [2]; in the data set with Oryctolagus cuniculus [4]; in [5]; in the data set on Oryctolagus cuniculus [7]; in the data set on Oryctolagus cuniculus [12]) was Active. Moreover, the Activity entry in data set [3] was “Non-Toxic”; in [6] it was “Not Active”; in data set [8], “Non-Toxic”; in data set [9] it was “Non-Toxic”; in data set [10] it was 0.5; in data set [11], 0.6.
